Reference: ChEMBL document CHEMBL1133424, “Fluoresceinated FKBP12 ligands for a high-throughput fluorescence polarization assay” (Bioorg Med Chem Lett, 2000)

Biological target: T1, Peptidyl-prolyl cis-trans isomerase FKBP1A (Homo sapiens, UniProt P62942)
Assay: Concentration required to produce a half-maximal FP signal at against FK506 binding protein 12 at ligand concentration of 100 nM

T1 sequence (P62942 whole entry): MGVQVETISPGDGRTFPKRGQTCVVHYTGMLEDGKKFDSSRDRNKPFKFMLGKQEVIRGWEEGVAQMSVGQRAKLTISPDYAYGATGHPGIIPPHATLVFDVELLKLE

Structure (SMILES) | IC50 [nM]
CCC(C)(C)C(=O)C(=O)N1CCC[C@H]1C(=O)OCCC/N=C(S)/N=C1\C=CC(=C2c3ccc(O)cc3Oc3cc(O)ccc32)C(C(=O)O)=C1 | 1650
CC(C)(C)CC(=O)C(=O)N1CCCC[C@H]1C(=O)OCCC/N=C(S)/N=C1\C=CC(=C2c3ccc(O)cc3Oc3cc(O)ccc32)C(C(=O)O)=C1 | 980
CC(C)(C)CC(=O)C(=O)N1CCCC[C@H]1C(=O)OC(CCCc1ccccc1)CC/N=C(S)/N=C1\C=CC(=C2c3ccc(O)cc3Oc3cc(O)ccc32)C(C(=O)O)=C1 (stereo partly drawn) | 250
COc1cc(C(=O)C(=O)N2CCCC[C@H]2C(=O)OCCCC/N=C(S)/N=C2\C=CC(=C3c4ccc(O)cc4Oc4cc(O)ccc43)C(C(=O)O)=C2)cc(OC)c1OC | 410

Biological target: T1, Peptidyl-prolyl cis-trans isomerase FKBP1A
Assay: Binding affinity of compound for FK506 binding protein 12

Structure (SMILES) | Ki [nM]
CCC(C)(C)C(=O)C(=O)N1CCC[C@H]1C(=O)OCCC/N=C(S)/N=C1\C=CC(=C2c3ccc(O)cc3Oc3cc(O)ccc32)C(C(=O)O)=C1 | 1300
CC(C)(C)CC(=O)C(=O)N1CCCC[C@H]1C(=O)OCCC/N=C(S)/N=C1\C=CC(=C2c3ccc(O)cc3Oc3cc(O)ccc32)C(C(=O)O)=C1 | 482
CC(C)(C)CC(=O)C(=O)N1CCCC[C@H]1C(=O)OC(CCCc1ccccc1)CC/N=C(S)/N=C1\C=CC(=C2c3ccc(O)cc3Oc3cc(O)ccc32)C(C(=O)O)=C1 (stereo partly drawn) | 32
COc1cc(C(=O)C(=O)N2CCCC[C@H]2C(=O)OCCCC/N=C(S)/N=C2\C=CC(=C3c4ccc(O)cc4Oc4cc(O)ccc43)C(C(=O)O)=C2)cc(OC)c1OC | 526
